Reference: US4485039A, “Synthetic analogues of α-melanotropin” (University Patents, Inc., priority 1982, dated 1984)
Positions of bridges follow the written chain, without caps; N, C: chain ends. Residues, ends and D or L forms follow the SMILES beside them.

Columns and labels:
[1] = tested on: lizard (Anolis carolinensis) skin melanophores; assay: lizard skin bioassay, melanosome dispersion in vitro; type: cell-based
[2] = tested on: adenylate cyclase in Cloudman S-91 mouse melanoma tumors; conditions: [α-32P]ATP conversion to [32P]cAMP
Excerpt: ATP conversion to [^32 P]cAMP in Cloudman S-91 mouse melanoma tumors as described in Sawyer, et al., Proc. Nat. Acad. Sci. USA, 77, 5754-5758 (1980). [^32 P]cAMP was isolated, purified and detected according to Salomon, et al., Anal. Biochem., 24, pp. 18-26 (1976).

[3] = tested on: frog (Rana pipiens) skin melanophores; assay: duration of melanosome dispersion, frog skin bioassay; type: cell-based; conditions: 5×10^-10 M, skins rinsed at 60 minutes
Experimental: The compounds of Example 1 were examined with respect to the duration of their ability to stimulate melanosome dispersion in vitro using the frog (Rana pipiens) skin bioassay.
At time zero, 5×10^-10 M of α-MSH was added to one group of frog skins and 5×10^-10 M of the test compounds were individually added to the second and third groups of skins. At time=60 minutes, skins were rinsed and transferred to Ringers solution.

[4] = tested on: chymotrypsin
[5] = cited from earlier work
[6] = tested on: frog (Rana pipiens) skin melanophores; assay: frog skin bioassay, melanosome dispersion in vitro; type: cell-based; conditions: standard frog skin assay
Excerpt: The Example 1 compounds were examined for their biological effects on melanosome dispersion in vitro using the standard frog (Rana pipiens) skin bioassay and photo-reflectance methods. See, Hadley, et al., Science, 213, pp. 1025-1027 (1981).

Compound: [Half-Cys^4, half-Cys^10 ]-α-MSH
- potency relative to the native hormone [1]: approximately thirty
- maximal adenylate cyclase activity compared with α-MSH [2]: same maximal adenylate cyclase activity as α-MSH
- potency relative to the native hormone [2]: approximately three

Compound: CC(=O)N[C@H]1CSSC[C@@H](C(=O)N[C@@H](CCCCN)C(=O)N2CCC[C@H]2C(=O)N[C@H](C(N)=O)C(C)C)NC(=O)[C@H](Cc2c[nH]c3ccccc23)NC(=O)[C@H](CCCNC(=N)N)NC(=O)[C@H](Cc2ccccc2)NC(=O)[C@H](Cc2cnc[nH]2)NC(=O)[C@H](CCC(=O)O)NC1=O [acetyl-[half-Cys^4, half-Cys^10]-α-MSH4-13NH.sbsb.2] (Ac-CEHFRWCKPV-NH2; disulfide 1-7)
- potency relative to the native hormone [1]: about 1.6 times

Compound: Ac-Ser^1 -Tyr^2 -Ser^3 -Met^4 -Glu^5 -His^6 -Phe^7 -Arg^8 -Trp^9 -Gly^10 -Lys^11 -Pro^12 -Val^13 -NH2 [α-MSH]
- time until activity completely reversed [3]: less than three
- time to complete degradation to a biologically inactive compound [4]: ≤ 5 minutes
- half-life in serum [5]: less than 2 minutes

Compound: [half-Cys^5, half-Cys^11 ]-α-MSH
- potency compared with α-MSH (in words) [6]: less potent than α-MSH
- enzymatic stability compared with α-MSH (in words) [4]: enzymatically more stable than α-MSH
